Assay results published in ChEMBL document CHEMBL1133572, “Protease inhibitors: current status and future prospects” (J Med Chem, 2000).
Residues, ends and D or L forms follow the SMILES beside them. *: point of attachment. Cbz = O=C(OCc1ccccc1)*

Assays:
Tryptase = Tryptase (Homo sapiens, UniProt Q9BZJ3+Q15661+Q9NRR2); test: Binding affinity against Tryptase.; assay type: protein assay
Serine protease 1 = Serine protease 1 (Homo sapiens, UniProt P07477)
[1] = target: T1, Calpain-1 catalytic subunit (Homo sapiens, UniProt P07384); test: The binding affinity against calpain.
T1 sequence (P07384 whole entry): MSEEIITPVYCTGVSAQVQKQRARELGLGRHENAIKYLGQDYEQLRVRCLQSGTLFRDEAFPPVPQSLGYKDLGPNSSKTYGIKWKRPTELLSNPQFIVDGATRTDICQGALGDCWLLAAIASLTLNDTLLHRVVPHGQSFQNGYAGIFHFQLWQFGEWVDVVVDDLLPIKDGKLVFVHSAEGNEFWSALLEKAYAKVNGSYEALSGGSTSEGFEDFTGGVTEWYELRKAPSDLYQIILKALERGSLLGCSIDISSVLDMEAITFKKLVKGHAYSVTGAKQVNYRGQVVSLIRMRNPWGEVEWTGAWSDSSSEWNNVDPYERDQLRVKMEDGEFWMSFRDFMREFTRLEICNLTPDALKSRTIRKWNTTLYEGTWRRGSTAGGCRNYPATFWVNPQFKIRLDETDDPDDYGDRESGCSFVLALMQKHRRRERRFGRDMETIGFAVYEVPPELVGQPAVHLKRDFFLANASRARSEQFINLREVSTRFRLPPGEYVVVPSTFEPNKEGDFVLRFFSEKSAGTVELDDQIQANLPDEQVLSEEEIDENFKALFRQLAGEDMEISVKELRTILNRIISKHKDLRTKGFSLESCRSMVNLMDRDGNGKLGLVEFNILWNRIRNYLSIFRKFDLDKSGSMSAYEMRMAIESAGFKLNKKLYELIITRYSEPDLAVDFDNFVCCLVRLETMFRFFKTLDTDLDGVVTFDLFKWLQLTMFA

[2] = target: Angiotensin-converting enzyme (Homo sapiens, UniProt P12821)
Chain of Angiotensin-converting enzyme (P12821 whole entry): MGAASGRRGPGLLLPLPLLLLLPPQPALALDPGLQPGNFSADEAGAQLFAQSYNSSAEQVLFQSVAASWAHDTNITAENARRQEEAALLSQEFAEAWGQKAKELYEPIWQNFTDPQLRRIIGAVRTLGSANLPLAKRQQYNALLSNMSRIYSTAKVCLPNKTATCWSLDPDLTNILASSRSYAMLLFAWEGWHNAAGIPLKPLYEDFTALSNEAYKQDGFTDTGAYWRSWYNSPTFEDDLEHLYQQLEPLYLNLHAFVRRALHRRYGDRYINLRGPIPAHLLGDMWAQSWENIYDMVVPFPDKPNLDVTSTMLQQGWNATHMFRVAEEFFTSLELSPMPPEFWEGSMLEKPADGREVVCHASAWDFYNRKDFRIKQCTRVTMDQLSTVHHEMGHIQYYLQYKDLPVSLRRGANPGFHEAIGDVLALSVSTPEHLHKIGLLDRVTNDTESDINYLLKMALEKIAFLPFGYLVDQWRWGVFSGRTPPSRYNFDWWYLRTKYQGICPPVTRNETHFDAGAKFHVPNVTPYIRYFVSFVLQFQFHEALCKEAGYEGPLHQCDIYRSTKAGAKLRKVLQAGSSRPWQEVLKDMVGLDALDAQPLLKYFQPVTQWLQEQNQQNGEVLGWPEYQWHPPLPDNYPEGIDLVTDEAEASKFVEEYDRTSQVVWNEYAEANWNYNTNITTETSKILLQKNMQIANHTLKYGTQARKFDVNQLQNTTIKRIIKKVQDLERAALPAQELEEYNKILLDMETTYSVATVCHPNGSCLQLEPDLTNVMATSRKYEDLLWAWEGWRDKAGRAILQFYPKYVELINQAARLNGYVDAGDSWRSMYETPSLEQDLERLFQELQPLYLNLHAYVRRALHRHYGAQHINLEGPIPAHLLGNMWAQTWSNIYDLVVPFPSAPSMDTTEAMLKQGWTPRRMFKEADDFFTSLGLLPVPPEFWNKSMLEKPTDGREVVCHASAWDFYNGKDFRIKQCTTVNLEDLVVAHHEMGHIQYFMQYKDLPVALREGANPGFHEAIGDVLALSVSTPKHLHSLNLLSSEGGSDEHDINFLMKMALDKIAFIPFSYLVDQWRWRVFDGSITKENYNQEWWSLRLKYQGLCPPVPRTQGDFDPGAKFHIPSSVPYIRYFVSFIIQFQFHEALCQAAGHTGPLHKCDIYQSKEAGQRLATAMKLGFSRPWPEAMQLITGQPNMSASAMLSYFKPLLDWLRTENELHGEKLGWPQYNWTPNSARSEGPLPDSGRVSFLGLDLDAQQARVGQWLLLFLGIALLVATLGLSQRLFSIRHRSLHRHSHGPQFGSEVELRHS

Caspase-1 = target: T2, Caspase-1 (Homo sapiens, UniProt P29466)
T2 sequence (P29466 whole entry): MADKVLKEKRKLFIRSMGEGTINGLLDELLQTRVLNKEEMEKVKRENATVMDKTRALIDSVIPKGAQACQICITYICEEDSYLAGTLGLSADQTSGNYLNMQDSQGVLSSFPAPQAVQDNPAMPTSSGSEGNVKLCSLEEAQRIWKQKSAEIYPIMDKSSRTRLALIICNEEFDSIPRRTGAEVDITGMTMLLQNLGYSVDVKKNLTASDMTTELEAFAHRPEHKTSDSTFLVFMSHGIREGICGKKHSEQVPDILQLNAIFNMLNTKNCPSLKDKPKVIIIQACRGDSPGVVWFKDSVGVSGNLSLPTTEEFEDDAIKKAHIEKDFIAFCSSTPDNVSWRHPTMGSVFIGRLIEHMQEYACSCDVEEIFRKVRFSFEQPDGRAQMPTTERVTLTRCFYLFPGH

Cathepsin K = Cathepsin K (Homo sapiens, UniProt P43235); test: The apparent binding affinity against cathepsin K.; details: read-out: Ki app
Chain of Cathepsin K (P43235 whole entry): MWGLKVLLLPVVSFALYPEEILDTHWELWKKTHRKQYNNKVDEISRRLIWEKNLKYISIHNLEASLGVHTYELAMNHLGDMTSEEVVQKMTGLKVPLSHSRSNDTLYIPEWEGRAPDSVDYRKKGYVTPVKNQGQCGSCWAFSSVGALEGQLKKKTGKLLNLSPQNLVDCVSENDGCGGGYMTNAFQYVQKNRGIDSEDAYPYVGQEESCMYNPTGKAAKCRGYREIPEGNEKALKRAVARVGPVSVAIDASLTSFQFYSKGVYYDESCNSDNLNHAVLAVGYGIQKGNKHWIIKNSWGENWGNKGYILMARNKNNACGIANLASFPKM

[3] = Oral bioavailability in dog; assay type: ADME, organism-based, Canis lupus familiaris; details: in vivo
Stromelysin-1 = Stromelysin-1 (Homo sapiens, UniProt P08254)
Chain of Stromelysin-1 (P08254 whole entry): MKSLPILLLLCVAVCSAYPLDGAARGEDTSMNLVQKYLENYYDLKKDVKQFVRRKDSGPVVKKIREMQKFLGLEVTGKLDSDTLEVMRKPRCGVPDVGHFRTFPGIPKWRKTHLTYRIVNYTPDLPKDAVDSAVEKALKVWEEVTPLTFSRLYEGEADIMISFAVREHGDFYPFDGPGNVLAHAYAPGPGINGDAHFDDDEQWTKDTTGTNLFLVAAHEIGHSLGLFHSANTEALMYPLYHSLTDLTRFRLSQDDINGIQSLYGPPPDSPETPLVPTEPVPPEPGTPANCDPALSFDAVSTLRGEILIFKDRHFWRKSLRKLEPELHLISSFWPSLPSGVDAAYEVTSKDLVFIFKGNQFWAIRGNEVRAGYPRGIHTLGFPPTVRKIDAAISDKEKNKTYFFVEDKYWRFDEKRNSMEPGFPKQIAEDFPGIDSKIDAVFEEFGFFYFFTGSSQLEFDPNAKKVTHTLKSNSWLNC

[4] = target: 72 kDa type IV collagenase (Homo sapiens, UniProt P08253)
Chain of 72 kDa type IV collagenase (P08253 whole entry): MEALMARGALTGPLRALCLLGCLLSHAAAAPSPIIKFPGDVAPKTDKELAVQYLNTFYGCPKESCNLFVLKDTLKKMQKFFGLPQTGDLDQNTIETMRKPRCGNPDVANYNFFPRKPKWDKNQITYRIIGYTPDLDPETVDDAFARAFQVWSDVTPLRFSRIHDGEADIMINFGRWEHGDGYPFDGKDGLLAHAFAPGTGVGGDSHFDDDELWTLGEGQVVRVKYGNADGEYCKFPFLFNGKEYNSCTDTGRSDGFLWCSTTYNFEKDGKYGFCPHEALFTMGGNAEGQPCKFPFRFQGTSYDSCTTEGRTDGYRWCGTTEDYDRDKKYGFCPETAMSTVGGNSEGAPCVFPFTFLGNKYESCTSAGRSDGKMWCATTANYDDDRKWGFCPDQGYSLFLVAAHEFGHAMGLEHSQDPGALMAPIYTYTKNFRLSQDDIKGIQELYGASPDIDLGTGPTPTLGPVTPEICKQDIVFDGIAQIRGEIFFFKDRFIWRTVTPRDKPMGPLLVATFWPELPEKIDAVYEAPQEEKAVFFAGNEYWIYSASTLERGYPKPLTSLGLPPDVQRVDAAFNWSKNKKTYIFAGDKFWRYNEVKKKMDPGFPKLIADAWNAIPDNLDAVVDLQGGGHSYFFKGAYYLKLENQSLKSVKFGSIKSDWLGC

Interstitial collagenase = target: T3, Interstitial collagenase (Homo sapiens, UniProt P03956)
T3 sequence (P03956 whole entry): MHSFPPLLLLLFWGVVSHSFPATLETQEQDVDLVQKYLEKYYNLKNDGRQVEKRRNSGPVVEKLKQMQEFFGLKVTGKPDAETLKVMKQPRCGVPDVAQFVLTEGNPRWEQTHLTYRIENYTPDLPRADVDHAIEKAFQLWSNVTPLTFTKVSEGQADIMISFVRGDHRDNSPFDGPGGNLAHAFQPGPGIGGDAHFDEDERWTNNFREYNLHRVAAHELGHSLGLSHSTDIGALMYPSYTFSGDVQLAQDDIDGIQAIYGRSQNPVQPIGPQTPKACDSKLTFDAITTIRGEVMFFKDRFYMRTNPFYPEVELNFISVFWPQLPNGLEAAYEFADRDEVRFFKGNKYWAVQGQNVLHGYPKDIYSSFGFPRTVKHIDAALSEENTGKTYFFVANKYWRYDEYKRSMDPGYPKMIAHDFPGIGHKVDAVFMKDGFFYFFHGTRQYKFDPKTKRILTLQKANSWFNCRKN

Neprilysin = target: T4, Neprilysin (Rattus norvegicus, UniProt P07861)
T4 sequence (P07861 whole entry): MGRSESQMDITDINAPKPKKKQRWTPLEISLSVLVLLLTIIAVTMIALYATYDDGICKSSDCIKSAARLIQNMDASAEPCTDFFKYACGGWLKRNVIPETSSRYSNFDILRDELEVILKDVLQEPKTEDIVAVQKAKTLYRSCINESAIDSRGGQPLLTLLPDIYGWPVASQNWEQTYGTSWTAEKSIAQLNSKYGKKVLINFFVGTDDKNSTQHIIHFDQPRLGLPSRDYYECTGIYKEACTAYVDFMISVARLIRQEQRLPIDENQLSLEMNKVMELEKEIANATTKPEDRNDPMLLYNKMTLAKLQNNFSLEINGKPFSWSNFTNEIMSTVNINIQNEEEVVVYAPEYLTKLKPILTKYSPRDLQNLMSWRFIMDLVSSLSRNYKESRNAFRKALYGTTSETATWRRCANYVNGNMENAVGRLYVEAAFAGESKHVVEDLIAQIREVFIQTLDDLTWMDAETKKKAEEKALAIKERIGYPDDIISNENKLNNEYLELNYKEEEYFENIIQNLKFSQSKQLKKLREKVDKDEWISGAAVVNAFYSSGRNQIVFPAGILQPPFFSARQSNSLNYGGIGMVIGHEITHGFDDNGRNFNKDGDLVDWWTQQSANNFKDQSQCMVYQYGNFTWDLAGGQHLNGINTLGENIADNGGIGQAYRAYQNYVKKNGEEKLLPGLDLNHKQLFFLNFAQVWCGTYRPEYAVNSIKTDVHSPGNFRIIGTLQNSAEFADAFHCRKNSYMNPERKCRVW

Coagulation factor X = Coagulation factor X (Homo sapiens, UniProt P00742)
Chain of Coagulation factor X (P00742 41-179 limits assumed): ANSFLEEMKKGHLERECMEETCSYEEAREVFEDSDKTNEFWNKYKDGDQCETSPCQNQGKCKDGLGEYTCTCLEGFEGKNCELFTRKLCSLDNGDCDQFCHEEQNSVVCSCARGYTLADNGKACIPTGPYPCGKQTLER
Chain of Coagulation factor X (P00742 235-488 limits assumed): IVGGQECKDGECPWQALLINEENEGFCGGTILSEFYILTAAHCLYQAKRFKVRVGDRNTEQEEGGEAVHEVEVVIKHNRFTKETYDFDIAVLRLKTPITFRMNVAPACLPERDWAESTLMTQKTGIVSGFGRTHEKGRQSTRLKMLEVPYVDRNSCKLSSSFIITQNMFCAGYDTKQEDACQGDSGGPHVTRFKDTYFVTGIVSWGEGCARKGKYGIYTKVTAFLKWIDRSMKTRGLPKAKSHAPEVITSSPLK

Procathepsin L = Procathepsin L (Homo sapiens, UniProt P07711); test: Inhibitory activity against cathepsin L, lysosomal cysteine protease
Chain of Procathepsin L (P07711 whole entry): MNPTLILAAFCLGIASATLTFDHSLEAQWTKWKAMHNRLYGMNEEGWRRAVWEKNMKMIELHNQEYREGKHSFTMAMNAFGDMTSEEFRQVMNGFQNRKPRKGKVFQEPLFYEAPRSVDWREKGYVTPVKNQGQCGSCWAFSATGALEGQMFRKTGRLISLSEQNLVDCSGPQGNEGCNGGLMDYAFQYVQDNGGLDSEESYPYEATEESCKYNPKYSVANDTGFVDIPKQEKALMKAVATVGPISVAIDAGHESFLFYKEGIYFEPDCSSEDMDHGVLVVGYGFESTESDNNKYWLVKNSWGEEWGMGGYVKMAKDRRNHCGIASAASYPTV

[5] = The irreversible inhibitor activity by second order rate equation.; assay type: ADME

Chain of Serine protease 1 (P07477 whole entry): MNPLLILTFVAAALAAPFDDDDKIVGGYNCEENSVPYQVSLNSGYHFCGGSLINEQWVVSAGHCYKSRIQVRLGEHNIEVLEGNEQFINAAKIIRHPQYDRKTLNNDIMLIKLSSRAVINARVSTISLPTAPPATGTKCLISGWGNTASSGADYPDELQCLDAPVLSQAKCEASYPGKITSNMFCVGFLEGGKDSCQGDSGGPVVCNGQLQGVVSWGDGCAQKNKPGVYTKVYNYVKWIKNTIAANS

Question: Which results are given for `NCc1ccc(CNC(=O)CNC(=O)OCc2ccc(COC(=O)NCC(=O)NCc3ccc(CN)cc3)cc2)cc1`?
Answer: Ki (Tryptase): 0.6 nM; Ki (Serine protease 1): 84000 nM

Question: With `CC[C@H](NC(=O)[C@H](CC(C)C)NC(=O)OCc1ccccc1)C(=O)C(=O)NCCCN1CCOCC1` as the compound, how does the Ki [1] read?
Answer: 41000 nM

Question: With `N=C(N)NCCC[C@H](NC(=O)c1ccc2ccccc2c1O)C(=O)N1CCC[C@H]1C(N)=O` as the compound, how does the Ki (Tryptase) read?
Answer: 840 nM

Question: For `CCC(=O)O[C@@H](O[P@](=O)(CCCCc1ccccc1)CC(=O)N1C[C@H](C2CCCCC2)C[C@H]1C(=O)O)C(C)C` [FOSINOPRIL], which IC50 [2] is on record?
Answer: 1 nM

Question: Which IC50 (Caspase-1) does the source give for `CC(=O)N[C@@H](CC(=O)O)C(=O)N[C@H]1CCC[C@H]2SC[C@@H](C(=O)N[C@H]3CC(=O)OC3O)N2C1=O` (stereo partly drawn) here?
Answer: 10400 nM

Question: With `CC(C)C[C@@H](C=O)NC(=O)[C@H](CC(C)C)NC(=O)[C@H](CC(C)C)NC(=O)OCc1ccccc1` [MG-132] (Cbz-Leu-Leu-Leu-aldehyde) as the compound, how does the Ki (Cathepsin K) read?
Answer: 1.4 nM

Question: For `NC1CCC(CNC(=O)[C@@H]2CCCN2C(=O)[C@H](N)C(C2CCCCC2)C2CCCCC2)CC1` (stereo partly drawn), which bioavailability [3] is on record?
Answer: 90%

Question: With `CNC(=O)[C@@H]1CCCCN(C(=O)OC(C)(C)C)CCC[C@H](C(=O)NO)[C@@H](CC(C)C)C(=O)N1` as the compound, how does the Ki (Stromelysin-1) read?
Answer: < 1 nM

Question: And the Ki [4]?
Answer: < 3 nM

Question: What about the Ki (Interstitial collagenase) of the same compound?
Answer: < 1 nM

Question: Which IC50 [2] does the source give for `CC1(C)CCCC(NC(=O)[C@@H](S)Cc2ccccc2)C(=O)N1CC(=O)O` (stereo partly drawn) here?
Answer: 12 nM

Question: And the IC50 (Neprilysin)?
Answer: 63 nM

Question: With `O=C(NC1CCC[C@H]2CCC[C@@H](C(=O)O)N2C1=O)[C@@H](S)Cc1ccccc1` (stereo partly drawn) as the compound, how does the IC50 [2] read?
Answer: 5 nM

Question: And the IC50 (Neprilysin)?
Answer: 8 nM

Question: Which IC50 (Coagulation factor X) does the source give for `COC(=O)[C@H](Cc1cccc(C(=N)N)c1)[C@@H](/C=C/c1ccccc1)NC(=O)c1ccc(-c2ccc(OC)c(OC)c2)cc1` here?
Answer: 30 nM

Question: For `N=C(N)c1cccc(-c2cccc([C@H](CCCNc3ccncc3)C(=O)O)c2)c1`, which IC50 (Coagulation factor X) is on record?
Answer: 270 nM

Question: Which results are given for `O=C(O)C(CCc1ccccc1)N[C@@H](Cc1ccccc1)C(=O)NC[C@H](O)C(=O)O` (stereo partly drawn)?
Answer: IC50 [2]: > 10000 nM; IC50 (Neprilysin): 11 nM

Question: For `O=CC(Cc1ccccc1)NC(=O)C(Cc1ccccc1)NC(=O)OCc1ccccc1` (stereo not drawn) (Cbz-Phe-Phe-aldehyde; configuration not given here), which IC50 (Procathepsin L) is on record?
Answer: 0.74 nM

Question: Which K second [5] does the source give for `CC(C)C[C@H](NC(=O)[C@H]1O[C@@H]1C(=O)O)C(=O)N1CCC[C@H]1C(=O)OCc1ccccc1` here?
Answer: 8.7 M⁻¹ s⁻¹

Question: With `CCCCc1nc(Cl)c(CO)n1Cc1ccc(-c2ccccc2-c2nn[nH]n2)cc1` [LOSARTAN] as the compound, how does the IC50 [2] read?
Answer: 19 nM

Question: For `CCOC(=O)[C@H](CCc1ccccc1)N[C@H]1CCc2ccccc2N(CC(=O)O)C1=O` [BENAZEPRIL], which IC50 [2] is on record?
Answer: 1.7 nM
